Test results taken from ChEMBL document CHEMBL1909046, “DrugMatrix in vitro pharmacology data”.

How the values were obtained:
[1] = target: Prostaglandin G/H synthase 1 (Homo sapiens, UniProt P23219); test: biochemical; type: tissue-based, Platelet; conditions: platelet;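 also: inhibition of COX-1 enzyme activity, with arachidonic acid supplied as substrate; in other assays of this panel Not Active means under 50% inhibition at 10 µM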
Thromboxane-A synthase = target: T1, Thromboxane-A synthase (Homo sapiens, UniProt P24557); test: biochemical; type: tissue-based, Platelet; conditions: platelet;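 also: enzyme inhibition assay with PGH2 supplied as substrate; in other assays of this panel Not Active means under 50% inhibition at 10 µM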
T1 sequence (P24557 whole entry): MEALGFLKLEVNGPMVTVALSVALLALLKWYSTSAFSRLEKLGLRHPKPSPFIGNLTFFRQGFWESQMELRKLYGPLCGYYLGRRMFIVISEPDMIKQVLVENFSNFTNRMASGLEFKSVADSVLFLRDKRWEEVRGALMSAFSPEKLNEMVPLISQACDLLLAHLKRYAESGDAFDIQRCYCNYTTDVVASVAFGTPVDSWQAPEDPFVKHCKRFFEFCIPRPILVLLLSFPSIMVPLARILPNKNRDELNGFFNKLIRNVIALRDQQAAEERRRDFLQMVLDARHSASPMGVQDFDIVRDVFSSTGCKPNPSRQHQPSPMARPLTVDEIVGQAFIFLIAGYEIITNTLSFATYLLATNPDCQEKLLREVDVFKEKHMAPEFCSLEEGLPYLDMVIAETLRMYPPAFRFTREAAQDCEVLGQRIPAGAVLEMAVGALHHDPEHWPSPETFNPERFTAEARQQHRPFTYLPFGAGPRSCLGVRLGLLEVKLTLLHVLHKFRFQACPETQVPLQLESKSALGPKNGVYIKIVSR

[2] = target: T2, Vasoactive intestinal polypeptide receptor 1 (Homo sapiens, UniProt P32241); type: cell membranes, Membrane; conditions: ht-29; also: in other assays of this panel Not Active means under 50% inhibition at 10 µM
T2 sequence (P32241 whole entry): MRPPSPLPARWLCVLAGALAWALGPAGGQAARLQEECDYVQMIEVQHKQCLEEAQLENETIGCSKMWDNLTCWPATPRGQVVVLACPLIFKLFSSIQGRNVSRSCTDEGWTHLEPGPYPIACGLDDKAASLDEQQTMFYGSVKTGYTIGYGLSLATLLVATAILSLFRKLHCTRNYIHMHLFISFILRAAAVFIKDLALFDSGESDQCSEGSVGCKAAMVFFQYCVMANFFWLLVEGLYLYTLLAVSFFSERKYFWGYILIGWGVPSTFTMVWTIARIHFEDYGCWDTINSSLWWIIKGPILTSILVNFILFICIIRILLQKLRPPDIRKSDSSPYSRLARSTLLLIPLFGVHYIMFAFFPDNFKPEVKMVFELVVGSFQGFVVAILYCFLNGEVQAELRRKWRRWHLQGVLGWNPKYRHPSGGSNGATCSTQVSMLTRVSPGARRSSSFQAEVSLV

[3] = target: T3, Polyunsaturated fatty acid lipoxygenase ALOX15 (Oryctolagus cuniculus, UniProt P12530); test: biochemical; type: tissue-based, Reticulocytes; conditions: reticulocytes;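 also: inhibition of 15-lipoxygenase enzyme activity measured with linoleic acid as the substrate; in other assays of this panel Not Active means under 50% inhibition at 10 µM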
T3 sequence (P12530 whole entry): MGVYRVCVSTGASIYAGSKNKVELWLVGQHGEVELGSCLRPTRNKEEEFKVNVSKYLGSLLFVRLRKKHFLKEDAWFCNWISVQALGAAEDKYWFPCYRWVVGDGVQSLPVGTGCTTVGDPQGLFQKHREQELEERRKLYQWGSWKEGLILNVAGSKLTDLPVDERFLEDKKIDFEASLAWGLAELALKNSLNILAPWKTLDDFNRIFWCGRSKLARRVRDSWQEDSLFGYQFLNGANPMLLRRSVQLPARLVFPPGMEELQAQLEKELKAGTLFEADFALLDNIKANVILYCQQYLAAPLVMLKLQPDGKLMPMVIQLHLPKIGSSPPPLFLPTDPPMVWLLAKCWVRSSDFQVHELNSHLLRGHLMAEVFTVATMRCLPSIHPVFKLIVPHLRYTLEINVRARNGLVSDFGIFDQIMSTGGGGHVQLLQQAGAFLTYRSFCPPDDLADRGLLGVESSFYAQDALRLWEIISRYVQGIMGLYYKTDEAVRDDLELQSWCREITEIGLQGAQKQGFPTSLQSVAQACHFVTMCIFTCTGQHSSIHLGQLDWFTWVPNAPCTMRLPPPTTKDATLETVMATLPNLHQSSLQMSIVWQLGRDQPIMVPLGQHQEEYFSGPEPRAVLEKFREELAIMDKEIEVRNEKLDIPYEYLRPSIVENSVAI

Melanocortin receptor 3 = Melanocortin receptor 3 (Homo sapiens, UniProt P41968); type: cell membranes, HEK293, Membrane; conditions: hek293; also: in other assays of this panel Not Active means under 50% inhibition at 10 µM
Chain of Melanocortin receptor 3 (P41968 whole entry): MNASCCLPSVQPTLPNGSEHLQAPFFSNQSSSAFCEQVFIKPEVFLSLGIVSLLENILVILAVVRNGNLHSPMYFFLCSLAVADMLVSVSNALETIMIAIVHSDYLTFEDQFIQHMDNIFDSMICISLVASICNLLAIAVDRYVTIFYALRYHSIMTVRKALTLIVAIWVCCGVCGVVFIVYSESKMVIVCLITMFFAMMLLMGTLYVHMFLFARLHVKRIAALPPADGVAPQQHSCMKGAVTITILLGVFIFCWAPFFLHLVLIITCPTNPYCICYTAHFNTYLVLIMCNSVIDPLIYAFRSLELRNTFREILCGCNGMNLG

[4] = target: Protein kinase C alpha type (Homo sapiens, UniProt P17252); type: cell-based; conditions: sf9
[5] = target: T4, Amine oxidase [flavin-containing] A (Homo sapiens, UniProt P21397); test: DRUGMATRIX: Monoamine Oxidase MAO-A enzyme inhibition (substrate: Kynuramine); set-up: species or system BTI-TN-5B1-4; conditions: bti-tn-5b1-4; Not Active = under 50% inhibition at 10 µM
T4 sequence (P21397 whole entry): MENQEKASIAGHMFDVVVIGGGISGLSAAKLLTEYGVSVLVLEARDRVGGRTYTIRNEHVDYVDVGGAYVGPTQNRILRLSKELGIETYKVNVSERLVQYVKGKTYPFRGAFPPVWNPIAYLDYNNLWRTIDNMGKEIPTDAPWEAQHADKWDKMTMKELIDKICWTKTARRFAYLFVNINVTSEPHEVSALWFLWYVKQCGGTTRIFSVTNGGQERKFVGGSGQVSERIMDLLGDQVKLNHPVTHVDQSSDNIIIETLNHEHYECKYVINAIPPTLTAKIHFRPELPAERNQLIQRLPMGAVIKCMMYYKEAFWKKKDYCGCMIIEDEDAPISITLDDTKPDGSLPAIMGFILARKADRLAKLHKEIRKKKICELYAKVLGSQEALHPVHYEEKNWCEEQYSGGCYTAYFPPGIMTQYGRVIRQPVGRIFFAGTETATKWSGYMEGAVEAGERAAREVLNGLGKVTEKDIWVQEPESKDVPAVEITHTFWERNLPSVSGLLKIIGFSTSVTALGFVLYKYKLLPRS

[6] = DRUGMATRIX: Serotonin (5-Hydroxytryptamine) 5-HT3 radioligand binding (ligand: [3H] GR-65630); type: cell membranes, Membrane; conditions: hek293; Not Active = under 50% inhibition at 10 µM

Chain of Prostaglandin G/H synthase 1 (P23219 whole entry): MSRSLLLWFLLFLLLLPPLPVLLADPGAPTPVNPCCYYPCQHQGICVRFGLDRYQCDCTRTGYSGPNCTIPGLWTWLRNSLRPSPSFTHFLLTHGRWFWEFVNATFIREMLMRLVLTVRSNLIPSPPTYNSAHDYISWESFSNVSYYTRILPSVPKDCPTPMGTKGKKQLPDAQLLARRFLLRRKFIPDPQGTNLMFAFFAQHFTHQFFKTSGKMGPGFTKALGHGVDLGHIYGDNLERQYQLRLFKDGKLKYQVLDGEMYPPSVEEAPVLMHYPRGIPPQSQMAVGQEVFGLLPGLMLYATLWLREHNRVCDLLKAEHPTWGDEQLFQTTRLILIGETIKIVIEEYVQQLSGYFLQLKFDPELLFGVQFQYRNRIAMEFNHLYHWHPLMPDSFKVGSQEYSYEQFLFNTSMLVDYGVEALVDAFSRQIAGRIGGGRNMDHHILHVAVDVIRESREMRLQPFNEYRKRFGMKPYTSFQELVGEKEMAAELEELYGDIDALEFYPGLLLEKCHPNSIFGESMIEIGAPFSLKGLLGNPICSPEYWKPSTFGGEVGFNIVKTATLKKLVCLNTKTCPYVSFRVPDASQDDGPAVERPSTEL

C#C[C@]1(O)CC[C@H]2[C@@H]3CCC4=CC(=O)CC[C@@H]4[C@H]3CC[C@@]21C [NORETHINDRONE]
Not Active: IC50 [1] | IC50 (Thromboxane-A synthase) | IC50 [2] | IC50 [3] | IC50 (Melanocortin receptor 3) | IC50 [4] | IC50 [5] | IC50 [6] | Ki [6]

C=CCN1CC[C@]23c4c5ccc(O)c4O[C@H]2/C(=N/N=C2\CC[C@@]4(O)[C@H]6Cc7ccc(O)c8c7[C@@]4(CCN6CC=C)[C@H]2O8)CC[C@@]3(O)[C@H]1C5 [NALOXONAZINE]
Not Active: IC50 [1] | IC50 (Thromboxane-A synthase) | IC50 [2] | IC50 [3] | IC50 (Melanocortin receptor 3) | IC50 [4] | IC50 [5] | IC50 [6] | Ki [6]

Oc1ncnc2[nH]ncc12 [ALLOPURINOL]
Not Active: IC50 [1] | IC50 (Thromboxane-A synthase) | IC50 [2] | IC50 [3] | IC50 (Melanocortin receptor 3) | IC50 [4] | IC50 [5] | IC50 [6] | Ki [6]

CCC1(c2ccccc2)C(=O)NC(=O)NC1=O [PHENOBARBITAL]
Not Active: IC50 [1] | IC50 (Thromboxane-A synthase) | IC50 [2] | IC50 [3] | IC50 (Melanocortin receptor 3) | IC50 [4] | IC50 [5] | IC50 [6] | Ki [6]

CHROMIC CHLORIDE
Not Active: IC50 [1] | Ki [1] | IC50 (Thromboxane-A synthase) | Ki (Thromboxane-A synthase) | IC50 [2] | Ki [2] | IC50 [3] | Ki [3] | IC50 (Melanocortin receptor 3) | Ki (Melanocortin receptor 3) | IC50 [4] | Ki [4] | IC50 [5] | Ki [5] | IC50 [6] | Ki [6]

CCCCCCNC(=O)n1cc(F)c(=O)[nH]c1=O [CARMOFUR]
Not Active: IC50 [1] | IC50 (Thromboxane-A synthase) | IC50 [2] | IC50 [3] | IC50 (Melanocortin receptor 3) | IC50 [4] | IC50 [5] | IC50 [6] | Ki [6]

CCN1C[C@]2(COC)[C@H](O)C[C@H](OC)[C@@]34[C@@H]5C[C@@]6(O)[C@H](OC(=O)c7ccccc7)[C@@H]5[C@@](OC(C)=O)([C@@H]([C@H](OC)[C@H]23)[C@@H]14)[C@@H](O)[C@@H]6OC [ACONITINE]
Not Active: IC50 [1] | IC50 (Thromboxane-A synthase) | IC50 [2] | IC50 [3] | IC50 (Melanocortin receptor 3) | IC50 [4] | IC50 [5] | IC50 [6] | Ki [6]

Oc1ccccc1 [PHENOL]
Not Active: IC50 [1] | IC50 (Thromboxane-A synthase) | IC50 [2] | IC50 [3] | IC50 (Melanocortin receptor 3) | IC50 [4] | IC50 [5] | IC50 [6] | Ki [6]

Nc1nc(F)nc2c1ncn2[C@@H]1O[C@H](CO)[C@@H](O)[C@@H]1O [FLUDARABINE]
Not Active: IC50 [1] | IC50 (Thromboxane-A synthase) | IC50 [2] | IC50 [3] | IC50 (Melanocortin receptor 3) | IC50 [4] | IC50 [5] | IC50 [6] | Ki [6]

O=C1CN(/N=C/c2ccc([N+](=O)[O-])o2)C(=O)N1 [NITROFURANTOIN]
Not Active: IC50 [1] | IC50 (Thromboxane-A synthase) | IC50 [2] | IC50 [3] | IC50 (Melanocortin receptor 3) | IC50 [4] | IC50 [5] | IC50 [6] | Ki [6]

CC12CCC(CC1=O)C2(C)C (stereo not given) [CAMPHOR]
Not Active: IC50 [1] | IC50 (Thromboxane-A synthase) | IC50 [2] | IC50 [3] | IC50 (Melanocortin receptor 3) | IC50 [4] | IC50 [5] | IC50 [6] | Ki [6]

Nc1nc(N)c2nc(CNc3ccc(C(=O)N[C@@H](CCC(=O)O)C(=O)O)cc3)cnc2n1 [AMINOPTERIN]
Not Active: IC50 [1] | IC50 (Thromboxane-A synthase) | IC50 [2] | IC50 [3] | IC50 (Melanocortin receptor 3) | IC50 [4] | IC50 [5] | IC50 [6] | Ki [6]
